Experimental data reported in US20230113944A1, “COMPOSITIONS AND METHODS FOR THE TREATMENT OF NEURODEGENERATIVE DISEASES” (priority 2020, published 2023).
Several values for one entry are separate records, joined by “and”; a condition that tells them apart may be missing. Equal values may be shown once. Entries after “also recorded” stand apart in the source; their conditions may differ. Read-outs that look alike come from different tables or passages of the source.

How the values were obtained:
Human AChE = target: T1, Human AChE (Homo sapiens, UniProt P22303); experiment: biochemical; settings: IC50 AChE
T1 construct: purchased Sigma
T1 sequence (P22303 32-614): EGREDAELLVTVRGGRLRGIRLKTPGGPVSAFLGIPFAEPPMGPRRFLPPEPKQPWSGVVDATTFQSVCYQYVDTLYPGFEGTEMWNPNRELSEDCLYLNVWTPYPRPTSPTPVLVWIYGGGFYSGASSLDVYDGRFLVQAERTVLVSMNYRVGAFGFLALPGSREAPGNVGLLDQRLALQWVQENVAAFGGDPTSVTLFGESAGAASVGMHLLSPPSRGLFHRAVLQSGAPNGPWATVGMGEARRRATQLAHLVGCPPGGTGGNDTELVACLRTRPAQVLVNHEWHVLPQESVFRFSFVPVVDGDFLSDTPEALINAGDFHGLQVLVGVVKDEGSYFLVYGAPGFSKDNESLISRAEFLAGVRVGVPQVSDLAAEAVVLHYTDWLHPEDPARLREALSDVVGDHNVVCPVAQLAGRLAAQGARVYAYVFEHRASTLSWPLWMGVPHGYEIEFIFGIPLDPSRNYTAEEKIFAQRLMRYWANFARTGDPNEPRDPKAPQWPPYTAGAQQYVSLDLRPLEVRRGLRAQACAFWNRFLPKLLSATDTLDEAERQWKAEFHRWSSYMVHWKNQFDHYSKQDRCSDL
Description: This acetylcholinesterase (AChE) assay is based on an Amplex Red assay kit (Thermo Fisher A12217). Human AChE (Sigma) was used. Briefly, 5 μL of compounds at the desired concentration were loaded into wells of a 384-well plate. Then, 5 μl of human AChE (30 mU/mL) was loaded into each well, followed by the addition of 10 μL of the working solution which contains 400 μM Amplex Red reagent, 2 U/mL HRP, 0.2 U/mL choline oxidase, and 100 μM acetylcholine. The reaction was monitored for 60 minutes and read at 530/590 nm. AChE IC50 was determined by plotting AChE activity as a percentage of DMSO control using GraphPad Prism software.

[1] = test system: HEK293T Tau RD P301S FRET biosensor (tau biosensor) cells; experiment: Donor plus Recipient (D+R) tau propagation assay; format: cell-based; settings: 20 μM, 48 hrs
Description: HEK293T Tau RD P301S FRET biosensor (tau biosensor) cells were grown in Dulbecco's Modified Eagle's medium (DMEM) with high glucose, 10% FBS, and 1% Penicillin-streptomycin at 37° C./5% CO2. The lead inhibitors were tested in functional tau propagation “D+R” (Donors plus Recipients) and EMT (EV-mediated transfer) assays using the tau biosensors. Briefly, tau aggregation in donor cells (D) was induced by transfection of tau biosensor cells with human AD brain derived synaptosomal extracts (35 μg of synaptosomal fraction for 5 million cells in one 10 cm dish); control cells were treated with corresponding amount of transfection reagent lipofectamine 2000. After 24 hr incubation, the cells were trypsinized and plated together with DID-labeled recipient cells (R) in a 1:1 ratio in 96-well plates (15,000 of each cell type per well) for D+R assay or 1.5 million of donor cells per well in 6-well plates for EMT assay. Tested compounds or a corresponding amount of DMSO (0.2%) was added to the cell culture medium, DMEM, which contained 10% of exosome-depleted FBS (ThermoFisher, A2720803). Four technical replicates were used for each experimental condition. The inhibitors were tested at 20 μM concentration. […] Tau seed transfer from donor to recipient cells results in FRET signal generation in the DID-positive recipient cells, which was measured by flow cytometry. Integrated FRET density was calculated in the top 30% of DID-positive cell based on DID signal intensity.
(§1) An Attune NxT Flow Cytometer (Invitrogen) equipped with an autosampler and FRET-compatible laser lines and filter sets was used for FRET signal detection. The FRET (CFP/YFP) signal was excited by a 405 nm laser for CFP excitation and detected in the YFP image detection channel. Flow cytometry data was analyzed using FCS Express version 5 software (DeNovo Software California, USA). Integrated FRET density was calculated as a product of percentage FRET positive cells and median of fluorescent intensity of the FRET positive cells as previously established.

[2] = target: human serum albumin (HSA) (Homo sapiens, UniProt P02768); experiment: Binding to human serum albumin (HSA); settings: for fraction unbound: human, human serum albumin
Chain of human serum albumin (HSA) (P02768 25-609): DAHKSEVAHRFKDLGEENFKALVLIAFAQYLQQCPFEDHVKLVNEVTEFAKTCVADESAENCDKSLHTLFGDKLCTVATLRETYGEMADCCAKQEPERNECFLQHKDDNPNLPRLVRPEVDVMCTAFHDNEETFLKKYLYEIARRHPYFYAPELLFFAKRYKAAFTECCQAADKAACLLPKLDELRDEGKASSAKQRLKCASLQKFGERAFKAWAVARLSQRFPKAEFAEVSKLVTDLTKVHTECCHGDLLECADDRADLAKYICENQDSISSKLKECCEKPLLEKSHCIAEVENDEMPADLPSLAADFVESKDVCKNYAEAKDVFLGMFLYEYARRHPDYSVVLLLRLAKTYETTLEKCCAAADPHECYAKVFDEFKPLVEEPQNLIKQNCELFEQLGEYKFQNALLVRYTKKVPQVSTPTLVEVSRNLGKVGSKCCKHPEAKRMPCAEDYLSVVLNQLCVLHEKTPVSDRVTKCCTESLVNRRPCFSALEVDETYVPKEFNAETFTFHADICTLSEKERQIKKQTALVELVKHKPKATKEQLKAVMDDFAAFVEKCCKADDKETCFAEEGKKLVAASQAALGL

[3] = Brain pharmacokinetic analysis after SQ dosing
Description: Pharmacokinetic (PK) analysis on the leads 8 and 11 to determine brain permeability using wild type mice was performed. The compounds were subcutaneously (SQ) injected at a dose of 20 mg per kg of body weight (mpk). Brain and plasma samples were collected 1, 2, and 4 hours after dosing.

[4] = test system: Tau P301S (PS19 line) tauopathy mouse model; experiment: Rapid in vivo assay: IL1β-induced brain EV release; set-up: species or system mice
[5] = Parallel artificial membrane permeability (IAM column) prediction of CNS permeability; format: in vitro ADME
Description: To predict the potential for brain permeability, a Regis Technologies analytical column connected to an Agilent HPLC system (Infinity 1260 quaternary pump and multiple wavelength detector; 1200 autosampler) was used. An IAM.PC.DD column was (4.6 mm i.d.×10 cm, particle size 5 μm; pore size 300 Å) conditioned with 20 column volumes of mobile phase or until a stable line was achieved. A mobile phase with a consistent flow rate of 1 mL/min was used comprising 100 mM Na2PO4 (solvent A) and acetonitrile (solvent B); compounds were eluted using a gradient (min/% B: 0/30, 10/60, 11/30, 15/30). Detector settings were 220, 250 and 280 nm and acquisition time was 15 min. The autosampler injected 10 μL of compound at 2 mM final, diluted from 10 mM in DMSO in 70:30 (water:acetonitrile). After elution, compound retention and void volume times were obtained from the chromatogram. The IAM capacity factor: (KIAM) was calculated using the equation: […]
where tr is the retention time of a compound and t0 is the void volume time of the column. To predict CNS permeability, we used the correlation described by the formula below.

[6] = test system: HEK293T Tau RD P301S FRET biosensor (tau biosensor) cells; experiment: EV-mediated tau seed transfer (EMT) assay; format: cell-based; settings: 20 μM
[7] = test system: HEK293T Tau RD P301S FRET biosensor (tau biosensor) cells; experiment: EV-mediated tau seed transfer (EMT) assay; format: cell-based
Description: HEK293T Tau RD P301S FRET biosensor (tau biosensor) cells were grown in Dulbecco's Modified Eagle's medium (DMEM) with high glucose, 10% FBS, and 1% Penicillin-streptomycin at 37° C./5% CO2. The lead inhibitors were tested in functional tau propagation “D+R” (Donors plus Recipients) and EMT (EV-mediated transfer) assays using the tau biosensors. Briefly, tau aggregation in donor cells (D) was induced by transfection of tau biosensor cells with human AD brain derived synaptosomal extracts (35 μg of synaptosomal fraction for 5 million cells in one 10 cm dish); control cells were treated with corresponding amount of transfection reagent lipofectamine 2000. After 24 hr incubation, the cells were trypsinized and plated together with DID-labeled recipient cells (R) in a 1:1 ratio in 96-well plates (15,000 of each cell type per well) for D+R assay or 1.5 million of donor cells per well in 6-well plates for EMT assay. Tested compounds or a corresponding amount of DMSO (0.2%) was added to the cell culture medium, DMEM, which contained 10% of exosome-depleted FBS (ThermoFisher, A2720803). Four technical replicates were used for each experimental condition. The inhibitors were tested at 20 μM concentration. In 48 hours 50 μL of culture medium per well were collected for cell viability test (Cytotox 96 non-radioactive cytotoxicity assay, Promega Corp., Madison, Wis.). The cells in D+R assay were harvested at the 48 hr time point and fixed with 2% paraformaldehyde for flow cytometry analysis according to published protocol. Tau seed transfer from donor to recipient cells results in FRET signal generation in the DID-positive recipient cells, which was measured by flow cytometry. Integrated FRET density was calculated in the top 30% of DID-positive cell based on DID signal intensity.
For the EMT assay, cell culture medium from donor cells growing for 48 hours with the compounds at concentrations of 20 μM or a corresponding amount of DMSO (0.2%), was collected and EVs were purified using the ExoQuick-TC kit (SBI biosciences) according to the manufacturer's instructions. Naïve recipient cells were plated in 96 well plates at a density of 20,000 cells per well in exosome-free medium and transfected with donor cell-derived exosomes at 12 hrs. The recipient cells were harvested 60 hours after transfection and FRET signals were analyzed using flow cytometry.
as §1, with “The FRET (CFP/YFP) signal was excited by a 405 nm laser for CFP excitation and detected in the YFP image detection channel.” left out

human nSMase2 = target: T2, human nSMase2 (Homo sapiens, UniProt Q9NY59); experiment: biochemical; format: biochemical; settings: IC50 nSMase2
T2 construct: expressed in transfected cells; host or cells: HEK293T
T2 sequence (Q9NY59 1-655): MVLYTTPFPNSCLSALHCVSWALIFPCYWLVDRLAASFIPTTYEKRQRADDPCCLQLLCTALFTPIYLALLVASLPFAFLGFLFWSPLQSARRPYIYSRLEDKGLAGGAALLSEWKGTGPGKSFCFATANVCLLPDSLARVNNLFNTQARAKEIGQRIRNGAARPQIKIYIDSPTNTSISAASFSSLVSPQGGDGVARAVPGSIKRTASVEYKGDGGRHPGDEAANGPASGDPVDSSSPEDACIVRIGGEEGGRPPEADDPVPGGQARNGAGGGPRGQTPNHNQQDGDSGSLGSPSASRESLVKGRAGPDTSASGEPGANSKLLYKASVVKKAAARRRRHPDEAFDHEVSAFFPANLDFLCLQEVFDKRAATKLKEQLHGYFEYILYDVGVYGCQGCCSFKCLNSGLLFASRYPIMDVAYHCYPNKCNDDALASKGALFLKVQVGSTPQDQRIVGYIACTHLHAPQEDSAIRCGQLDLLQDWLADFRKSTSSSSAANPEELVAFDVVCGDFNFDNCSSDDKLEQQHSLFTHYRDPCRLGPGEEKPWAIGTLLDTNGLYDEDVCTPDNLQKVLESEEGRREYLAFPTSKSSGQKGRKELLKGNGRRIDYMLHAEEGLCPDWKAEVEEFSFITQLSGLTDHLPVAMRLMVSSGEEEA
Description: To evaluate nSMase2 inhibitory activity of tested compounds, cell lysates from HEK293T cells over-expressing human nSMase2 were used as the source of the nSMase2 enzyme. The Amplex Red Sphingomyelinase activity assay was performed according to previously a described protocol^1. Confluent cells were washed with PBS and harvested with lysis buffer [100 mM Tris-HCl pH 7.5, 100 mM sucrose, 100 μM PMSF, 1× protease inhibitor cocktail] using a cell scraper, and then sonicated 3 times on ice for 10 sec and centrifuged at 10,000×g for 10 min at 4° C. to remove remaining cell debris. An initial screening of a compound library was performed using 50 μM compound concentrations. In secondary testing, selected compounds were analyzed at multiple compound concentrations and plotted as a percentage of DMSO control; dose-response curves were generated to determine IC50s using GraphPad Prism software (GraphPad Software, La Jolla Calif.). […] Activity of the enzyme in the presence of the different concentrations of the inhibitors was plotted against substrate concentration and the maximal rate of the enzymatic reaction (Vmax) and Michaelis constant were calculated using GraphPad Prism.

[8] = test system: HEK293T Tau RD P301S FRET biosensor cells; experiment: Tau biosensor cells seeded with AD brain synaptosomal (P2) extract, FRET signal; format: cell-based; settings: 10 μM, imaged after 24 hrs, vs DMSO
Description: Brain autopsy samples were obtained from the University of California Irvine, University of Southern California AD Research Centers, and University of California, Los Angeles. Brain tissue was cryopreserved and synaptosomal fractions (P2-fractions, or P2) were prepared as previously described. In order to prepare P2-extracts, aliquots were quickly defrosted at 37° C. and centrifuged at 10,000×g for 10 min at 4° C. to remove P2 from sucrose. After aspirating the supernatant, cold PBS was added to each sample in Ma 1:5 weight/volume ratio. Samples were then sonicated in 10-second intervals three times, incubated on ice for 30 min and centrifuged at 20,000 g for 20 min at 4° C. P2 extracts were collected and stored at −80° C. Tau biosensor cell treatment and analysis. HEK293T Tau RD P301S FRET biosensor cells (tau biosensors) were growing in the Dulbecco's Modified Eagle's medium (DMEM) with higher glucose, 10% FBS, and 1% Penicillin-streptomycin at 37° C./5% CO2. Cells were plated in 10-sm dishes (3 million cells per dish in the regular medium) and grown for 12 hrs. Cells were transduced with pulled synaptosomal (P2) extracts from AD cases using lipofectamine 2000. […]
Cells were imaged after 24 hrs using automated microscope imaging system (Lionheart FX) equipped with 20× objective and CFP-YFP FRET Image filter cube. […] FRET signal was detected using LSRII flow cytometer (BD biosciences). […]

CN1c2ccc(OC(=O)Nc3ccncc3)cc2[C@]2(C)CCO[C@H]12 [Compound 8]
IC50 (Human AChE): 6000 nM | tau seed transfer from donor to recipient cells, D+R assay [1]: suppress tau propagation; also recorded: significantly suppresses | degree of binding to human serum albumin (HSA) [2]: low degree of binding | fraction unbound [2]: 0.28 | brain penetration (compound levels in brain tissue, LC-MS/MS) ([3]; mice, 20 mg/kg SQ): penetrated the brain | concentration at 1 h ([3]; mouse, in vivo, 20 mg/kg): 61 ng/g and ~200 nM | time of peak brain levels after SQ dosing ([3]; wild type mice, 20 mg/kg SQ): around one | IL1β-induced tau release by exosomes ([4]; 20 mg/kg SQ): less effective | IL1β-induced brain EV / exosomal release (small EV concentration, TRPS) ([4]; mouse, in vivo, 20 mg/kg): didn't induce the same level of suppression | CNS perm (PAMPA) ([5]; PAMPA, 2 mM): 1.9 | EV size distribution of donor-derived EVs (TRPS) [6]: did not affect | concentrations of exosomal-type small EVs from donor cells [6]: decreased | levels of exosomal markers CD63, CD81, and syntenin-1 in donor EVs ([6]; vs DMSO control): reduced | tau seed transfer from donor to recipient cells, EMT assay ([7]; 20 μM, donor cells 48 hrs): suppress tau propagation; also recorded: significantly suppresses

CN1c2ccc(OC(=O)Nc3ccncc3F)cc2[C@]2(C)CCO[C@H]12 [Compound 13]
IC50 (Human AChE): > 5000 nM | degree of binding to human serum albumin (HSA) [2]: low degree of binding | fraction unbound [2]: 0.35 | CNS perm (PAMPA) ([5]; PAMPA, 2 mM): 1.3 | IC50 (human nSMase2): 600 nM

CN1c2ccc(OC(=O)Nc3cncc(F)c3)cc2[C@]2(C)CCO[C@H]12 [Compound 14]
IC50 (Human AChE): > 5000 nM | fraction unbound [2]: 0.21 | CNS perm (PAMPA) [5]: 2 | IC50 (human nSMase2): 900 nM

O=c1[nH]c(=S)[nH]c(-c2ccccc2)c1Cc1c(O)ccc2ccccc12 [DDL-112, cambinol]
amount of FRET-positive tau aggregates (microscopy) [8]: visibly decreased

CCN(C)C(=O)Oc1cccc([C@H](C)N(C)C)c1 [rivastigmine, reference compound]
EV-mediated transfer from donor to recipient cells ([7]; preliminary experiments, data not shown): may partially suppress
